{
  "source": "patent US20080020977A1",
  "about": "“Use of Fullerenes to Oxidize Reduced Redox Proteins” (priority 2005, published 2008)",
  "key": {"[1]": {"test_system": "mice", "conditions": "oral, about 0.5 mg/kg/day, cited from earlier work"}, "[2]": {"test_system": "cytochrome c", "experiment": "Oxidation state of cytochrome c in the xanthine/xanthine oxidase system (absorbance at 550 nm)", "type": "biochemical", "conditions": "substituted fullerene added at time zero; versus blank without fullerene; data not shown", "method": "The reduction of cytochrome c was performed by employing the xanthine/xanthine oxidase system. The reaction was initiated by the addition of xanthine oxidase (7.5×10^−3 units) to an incubation mixture containing 50 mM potassium phosphate, 0.1 mM EDTA, 0.01 mM cytochrome c, and 0.05 mM xanthine. Xanthine oxidase catalyzed the formation of superoxide radicals, which then reduced cytochrome c to the ferrous form. Reduction of cytochrome c was followed by recording the corresponding increase in the absorbance at 550 nm, using the molar absorption coefficients of 9 mmol^−1cm^−1 and 27.7 mmol^−1cm^−1 for the oxidized (ferric) and reduced (ferrous) forms, respectively. All assays were performed at room temperature. A volume of 3 mL was used in each experiment.\nThe effect of fullerenes on the oxidation state of cytochrome c was studied using substituted fullerenes C3 and DF-1, described above, wherein the substituted fullerene was added to the reaction mixture at 5, 10, or 15 minutes after addition of xanthine oxidase. Results are shown in FIG. 11, with time=0 for each run being the moment when the substituted fullerene was added. In the negative control, without fullerene (blank), reduction of cytochrome c (increase of absorbance at 550 nm) can be seen over 600 sec. […]"}},
  "data": [
    {"substance": "(C60(>C(COOH)2)3) [C3]", "values": [
      {"measurement": "mean survival", "setting": "[1]; controls 23.5+/−5.5 months", "result": "28.7+/−3.3 months"},
      {"measurement": "increase in mean survival relative to controls", "setting": "[1]; p=0.033", "result": "~20", "unit": "%"},
      {"measurement": "extent and rate of reduction of cytochrome c (increase of absorbance at 550 nm)", "setting": "[2]", "result": "reduced"}
    ]}
  ]
}
